# Measurements from paper PMC12091851, “Replacing a Cereblon Ligand by a DDB1 and CUL4 Associated Factor 11 (DCAF11) Recruiter Converts a Selective Histone Deacetylase 6 PROTAC into a Pan‐Degrader” (Chemmedchem, 2025).
# Target: T1, HDAC6 (Homo sapiens, UniProt Q9UBN7)
# T1 sequence (Q9UBN7 1-1215): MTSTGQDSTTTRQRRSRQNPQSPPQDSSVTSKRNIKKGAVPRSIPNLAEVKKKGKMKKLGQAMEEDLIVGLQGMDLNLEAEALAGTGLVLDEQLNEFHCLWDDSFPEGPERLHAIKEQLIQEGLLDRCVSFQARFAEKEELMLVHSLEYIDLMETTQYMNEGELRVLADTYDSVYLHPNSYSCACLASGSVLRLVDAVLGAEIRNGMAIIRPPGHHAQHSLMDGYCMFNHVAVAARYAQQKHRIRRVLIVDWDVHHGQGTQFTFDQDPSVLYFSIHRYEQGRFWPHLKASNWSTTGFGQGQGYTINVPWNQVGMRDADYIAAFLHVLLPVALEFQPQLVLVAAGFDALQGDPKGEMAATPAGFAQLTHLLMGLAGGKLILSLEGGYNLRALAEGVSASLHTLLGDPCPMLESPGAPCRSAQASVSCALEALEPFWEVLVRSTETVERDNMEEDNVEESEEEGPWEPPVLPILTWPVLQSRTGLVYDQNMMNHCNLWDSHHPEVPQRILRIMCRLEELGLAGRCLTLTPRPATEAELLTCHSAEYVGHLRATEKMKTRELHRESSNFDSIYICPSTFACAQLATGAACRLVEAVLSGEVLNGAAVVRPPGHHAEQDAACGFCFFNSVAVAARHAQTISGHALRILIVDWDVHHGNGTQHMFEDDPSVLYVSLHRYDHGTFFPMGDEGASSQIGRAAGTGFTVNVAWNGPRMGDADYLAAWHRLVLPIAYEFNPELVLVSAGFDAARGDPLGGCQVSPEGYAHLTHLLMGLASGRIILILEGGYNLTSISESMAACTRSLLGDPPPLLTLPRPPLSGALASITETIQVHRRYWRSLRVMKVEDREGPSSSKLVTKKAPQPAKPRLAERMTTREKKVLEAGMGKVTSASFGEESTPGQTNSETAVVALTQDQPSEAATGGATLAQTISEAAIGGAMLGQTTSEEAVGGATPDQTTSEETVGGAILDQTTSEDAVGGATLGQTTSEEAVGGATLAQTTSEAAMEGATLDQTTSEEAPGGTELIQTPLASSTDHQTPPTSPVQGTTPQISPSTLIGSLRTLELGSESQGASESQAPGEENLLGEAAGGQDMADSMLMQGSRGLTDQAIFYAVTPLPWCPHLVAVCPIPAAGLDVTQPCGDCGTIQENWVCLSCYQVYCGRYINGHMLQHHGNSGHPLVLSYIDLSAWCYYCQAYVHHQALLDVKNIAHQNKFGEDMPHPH
# Assay: Simple Western immunoassay, HDAC6 levels in MM.1S cell lysates
# Format: cell-based
# Parameters: endogenous in cells; host or cells: MM.1S
# Conditions: MM.1S cells, 10 μM; for reduction of HDAC6 protein levels: 24 h
# Method: Figure 3 Initial degradation screening of HDAC1 and 6 by DCAF11‐recruiting PROTACs by Simple Western™ immunoassay analysis of MM.1S cell lysates. MM.1S cells were treated with the indicated compound (10 μM) or vehicle (DMSO) for 24 h. […] Bottom: Representative images from a total of n=3 biological replicates, labeled with spacer type; w/o: without spacer.
# 2. Biological Experiments […]
# The human multiple myeloma cell line MM.1S (CRL-2974) was obtained from American Type Culture Collection (ATCC, Manassas, VA, USA). The semi-adherent cells were cultivated in RPMI 1640 medium (Catalog#21875-034, Gibco, ThermoFisher Scientific Inc., Waltham, MA, USA) supplemented with 10% FBS (PAN Biotech GmbH; Aidenbach, Germany), 100 IU/mL penicil lin, 0.1 mg/mL streptomycin (PAN Biotech GmbH) and 1 mM sodium pyruvate (ThermoFisher Scientific Inc.). […]
# (PAN Biotech GmbH). All cells were cultured at 37 °C in a 5% CO2 atmosphere. Incubation times, as part of assay protocols, were performed under these conditions as well. […]
# 2.2. Simple Western™ Immunoassay
# For the cell lysates, MM.1S (0.5 × 10^6 cells/mL) or U-87MG (0.18 × 10^6 cells/mL) cells were seeded and incubated with the indicated concentration of compound or vehicle (DMSO) for the given time. […]
# SDS, 0.5% deoxycholate; Catalog# FNN0011, Thermo Fisher Scientific Inc., Waltham, MA, USA) with addition of Halt Protease Inhibitor Cocktail (100×) (Catalog# 78429, Life Technologies GmbH, Carlsbad, CA, USA) and phenylmethanesulfonyl fluoride (Catalog# 10837091001, Sigma-Aldrich, St.
# Louis, MO, USA) according to manufacturer´s instructions. Protein content was determined by Pierce™ BCA Protein Assay Kit (Catalog# 23225, Thermo Fisher Scientific Inc.) according to manufacturer´s guidelines. […]
# Fluorescence Separation 8x25 Capillary Cartridges (Catalog# SM-FL004-1, Protein Simple, Bio-Techne, Minneapolis, MN, USA) were used for separation and the Anti-Mouse Detection Module (Catalog# DM-002, Protein Simple) was used for detection with addition of 20x Anti-Rabbit HRP […]
# Conjugate (Catalog# 043-426, Protein Simple) according to manufacturer´s instructions. […] Evaluation and quantification was performed with the compass software (6.2.0, Protein Simple). […]
# For the cell viability assay the automated pipetting robot system ASSIST PLUS (Model# 4505, Integra Biosciences, Bibertal, Germany) was used. […] The toxicity of compounds was determined after 72 h using the CellTiter-Glo 2.0 Cell Viability Assay (Promega, Madison, WI, USA, #G9242) according to the manufacturer´s protocol. Subsequently, the luminescence was measured using a Tecan Spark (Tecan Group AG, Maennedorf, Swiss) and the half maximal effective concentration (EC50) was determined by plotting dose response curves and nonlinear regression with GraphPad Prism (GraphPad Software, San […]
time dependent degradation of HDAC6 (after 6 h),Compound,effect on HDAC6 protein levels (14 h),reduction of HDAC6 protein levels
,O=CN(CCCCCCCCCCCC(=O)Nc1ccc(C(=O)NCCCCCCC(=O)NO)cc1)C(C(=O)NCc1ccccc1)c1ccc(Cl)c(Cl)c1 (stereo not shown) [Compound 1j-nc],not able to affect the protein levels of HDAC1 and 6,
significant degradation,O=C(CCCCCCNC(=O)c1ccc(NC(=O)CCCCCCCCCCCN(C(=O)CCl)C(C(=O)NCc2ccccc2)c2ccc(Cl)c(Cl)c2)cc1)NO (stereo not shown) [Compound 1j],,significant reduction of HDAC6 protein levels
,O=C(CCCCCCNC(=O)c1ccc(N(C(=O)CCl)C(C(=O)NCc2ccccc2)c2ccc(Cl)c(Cl)c2)cc1)NO (stereo not shown) [Compound 2],,significant reduction of HDAC6 protein levels
